How the values were obtained:
Assay type in all cases: in vivo
[1] = tested on: Zea mays (ZEAMX); assay: Pre-emergence herbicidal test; settings: 1000 g/ha, evaluated after 13 days
[2] = tested on: Setaria faberi (SETFA); assay: Pre-emergence herbicidal test; settings: 1000 g/ha, evaluated after 13 days
[3] = tested on: Echinochloa crus-galli (ECHCG); assay: Post-emergence herbicidal test; settings: 1000 g/ha unless otherwise stated, evaluated after 13 days
Experimental: (§1) Seeds of a variety of test species are sown in standard soil in pots (Amaranthus retoflexus (AMARE), Solanum nigrum (SOLNI), Setaria faberi (SETFA), Lolium perenne (LOLPE), Echinochloa crus-galli (ECHCG), Ipomoea hederacea (IPOHE), Abutilon theophrasti (ABUTH), Zea mays (ZEAMX)). After 8 days cultivation under controlled conditions in a glasshouse (at 24° C./16° C., day/night; 14 hours light; 65% humidity), the plants are sprayed with an aqueous spray solution derived from the formulation of the technical active ingredient in acetone/water (50:50) solution containing 0.5% Tween 20 (polyoxyethelyene sorbitan monolaurate, CAS RN 9005-64-5). Compounds are applied at 1000 g/ha unless otherwise stated. The test plants are then grown in a glasshouse under controlled conditions in a glasshouse (at 24° C./16° C., day/night; 14 hours light; 65% humidity) and watered twice daily. After 13 days the test is evaluated for the percentage damage caused to the plant. The biological activities are shown in the following table on a five-point scale (5=81-100%; 4=61-80%; 3=41-60%; 2=21-40%; 1=10-20%; 0=0%;−=not tested).

[4] = tested on: Abutilon theophrasti (ABUTH); assay: Post-emergence herbicidal test; settings: 1000 g/ha unless otherwise stated, evaluated after 13 days
Experimental: as §1

[5] = tested on: Zea mays (ZEAMX); assay: Post-emergence herbicidal test; settings: 1000 g/ha unless otherwise stated, evaluated after 13 days
Experimental: as §1

[6] = tested on: Amaranthus retoflexus (AMARE); assay: Post-emergence herbicidal test; settings: 1000 g/ha unless otherwise stated, evaluated after 13 days
Experimental: as §1

[7] = tested on: Ipomoea hederacea (IPOHE); assay: Post-emergence herbicidal test; settings: 1000 g/ha unless otherwise stated, evaluated after 13 days
Experimental: as §1

[8] = tested on: Setaria faberi (SETFA); assay: Post-emergence herbicidal test; settings: 1000 g/ha unless otherwise stated, evaluated after 13 days
Experimental: as §1

[9] = tested on: Amaranthus retoflexus (AMARE); assay: Pre-emergence herbicidal test; settings: 1000 g/ha, evaluated after 13 days
[10] = tested on: Abutilon theophrasti (ABUTH); assay: Pre-emergence herbicidal test; settings: 1000 g/ha, evaluated after 13 days
[11] = tested on: Ipomoea hederacea (IPOHE); assay: Pre-emergence herbicidal test; settings: 1000 g/ha, evaluated after 13 days
[12] = tested on: Echinochloa crus-galli (ECHCG); assay: Pre-emergence herbicidal test; settings: 1000 g/ha, evaluated after 13 days

Row | Structure (SMILES) | percentage damage caused to the plant, five-point scale, ZEAMX [1] | percentage damage caused to the plant, five-point scale, SETFA [2] | percentage damage caused to the plant, ECHCG (five-point scale) [3] | percentage damage caused to the plant, ABUTH (five-point scale) [4] | percentage damage caused to the plant, ZEAMX (five-point scale) [5] | percentage damage caused to the plant, AMARE (five-point scale) [6] | percentage damage caused to the plant, IPOHE (five-point scale) [7] | percentage damage caused to the plant, SETFA (five-point scale) [8] | percentage damage caused to the plant, five-point scale, AMARE [9] | percentage damage caused to the plant, five-point scale, ABUTH [10] | percentage damage caused to the plant, five-point scale, IPOHE [11] | percentage damage caused to the plant, five-point scale, ECHCG [12]
1 | CCOC(=O)c1nn(-c2ccc(OC(F)(F)F)cc2)c2cccc(S(=O)(=O)CC)c2c1=O [Compound P22, ethyl 5-ethylsulfonyl-4-oxo-1-[4-(trifluoromethoxy)phenyl]cinnoline-3-carboxylate] | 0 (0=0%) | 0 (0=0%) | 1 (1=10-20%) | 1 (1=10-20%) | 0 (0=0%) | 1 (1=10-20%) | 1 (1=10-20%) | 1 (1=10-20%) | 0 (0=0%) | 0 (0=0%) | 0 (0=0%) | 0 (0=0%)
2 | CS(=O)(=O)c1cccc2c1c(=O)c(C(=O)OCCC1CCCCC1)nn2-c1ccc(OC(F)(F)F)cc1 [Compound P87, 2-cyclohexylethyl 5-methylsulfonyl-4-oxo-1-[4-(trifluoromethoxy)phenyl]cinnoline-3-carboxylate] | 1 (1=10-20%) | 3 (3=41-60%) | 1 (1=10-20%) | 1 (1=10-20%) | 0 (0=0%) | 1 (1=10-20%) | 0 (0=0%) | 1 (1=10-20%) | 0 (0=0%) | 1 (1=10-20%) | 1 (1=10-20%) | 1 (1=10-20%)
3 | CC[S+]([O-])c1cccc2c1c(=O)c(C(=O)O)nn2-c1ccc(OC(F)(F)F)cc1 (centres unmarked) [Compound P25, 5-ethylsulfinyl-4-oxo-1-[4-(trifluoromethoxy)phenyl]cinnoline-3-carboxylic acid] | 0 (0=0%) | 1 (1=10-20%) | 1 (1=10-20%) | 1 (1=10-20%) | 1 (1=10-20%) | 0 (0=0%) | 1 (1=10-20%) | 2 (2=21-40%) | 0 (0=0%) | 0 (0=0%) | 0 (0=0%) | 0 (0=0%)
4 | CCOC(=O)c1nn(-c2ccc(OC(F)(F)F)cc2)c2cc(OC)cc(SC)c2c1=O [Compound P57, ethyl 7-methoxy-5-methylsulfanyl-4-oxo-1-[4-(trifluoromethoxy)phenyl]cinnoline-3-carboxylate] | 0 (0=0%) | 0 (0=0%) | 1 (1=10-20%) | 0 (0=0%) | 0 (0=0%) | 0 (0=0%) | 0 (0=0%) | 1 (1=10-20%) | 0 (0=0%) | 0 (0=0%) | 0 (0=0%) | 0 (0=0%)
5 | C=CCOC(=O)c1nn(-c2ccc(OC(F)(F)F)cc2)c2cccc(S(C)(=O)=O)c2c1=O [Compound P80, allyl 5-methylsulfonyl-4-oxo-1-[4-(trifluoromethoxy)phenyl]cinnoline-3-carboxylate] | 1 (1=10-20%) | 5 (5=81-100%) | 3 (3=41-60%) | 1 (1=10-20%) | 1 (1=10-20%) | 0 (0=0%) | 1 (1=10-20%) | 4 (4=61-80%) | 0 (0=0%) | 0 (0=0%) | 0 (0=0%) | 4 (4=61-80%)
6 | CS(=O)(=O)c1cccc2c1c(=O)c(C(=O)SCCCc1ccccc1)nn2-c1ccc(OC(F)(F)F)cc1 [Compound P92, S-(3-phenylpropyl) 5-methyslulfonyl-4-oxo-1-[4-(trifluoromethoxy)phenyl]cinnoline-3-carbothioate] | 0 (0=0%) | 3 (3=41-60%) | 3 (3=41-60%) | 2 (2=21-40%) | 1 (1=10-20%) | 1 (1=10-20%) | 2 (2=21-40%) | 3 (3=41-60%) | 1 (1=10-20%) | 1 (1=10-20%) | 0 (0=0%) | 1 (1=10-20%)
7 | CCOC(=O)c1nn(-c2ccc(OC(F)(F)F)cc2)c2ccc(Br)c(SC)c2c1=O [Compound P53, ethyl 6-bromo-5-methylsulfanyl-4-oxo-1-[4-(trifluoromethoxy)phenyl]cinnoline-3-carboxylate] |  | 1 (1=10-20%) | 1 (1=10-20%) | 1 (1=10-20%) | 0 (0=0%) | 0 (0=0%) | 1 (1=10-20%) | 0 (0=0%) | 1 (1=10-20%) | 1 (1=10-20%) | 0 (0=0%) | 1 (1=10-20%)

From patent US20230250066A1, “HERBICIDAL CINNOLINE DERIVATIVES” (SYNGENTA CROP PROTECTION AG, priority 2020, published 2023)
